According to patent US6395783B1, “Treatment of PCP addiction and PCP addiction-related behavior” (Brookhaven Science Associates, LLC, priority 2000, dated 2002):

Columns and labels:
[1] = tested on: extracellular DA concentrations in the nucleus accumbens (NAcc); assay: In vivo microdialysis of PCP-induced extracellular DA in the nucleus accumbens of freely moving rats; set-up: species or system rat (Sprague-Dawley)
Description: (§1) We explored the effects of increased endogenous GABA activity on PCP-induced extracellular DA concentrations in the prefrontal cortex (PFC) and nucleus accumbens (NAcc) of freely moving rats.
(§2) All animals were used under an IACUC-approved protocol and with strict adherence to the NIH guidelines. Adult male Sprague-Dawley rats (200-300 g, Taconic Farms), housed in the animals care facility under 12:12 light/dark conditions, were placed into 6 groups (n=3-6), anesthetized and siliconized guide cannulae were stereotactically implanted into the right NAcc (2.0 mm anterior and 1.0 mm lateral to bregms, and 7.0 mm ventral to the cortical surface) and prefrontal cortex (PFC) at least 4 days prior to study. Microdialysis probes (2.0 mm, Bioanalytical Systems, BAS, West Lafayette, Ind.) were positioned within the guide cannulae and artificial cerebrospinal fluid (ACSF, 155.0 mM […]) was administered through the probe using a CMA/100 microinfusion pump (BAS) at a flow rate of […].
Animals were placed in bowls, and probes were inserted and flushed with ACSF overnight. On the day of the study, a minimum of three samples were injected to determine baseline stability. Samples were collected for 20 min. and injected on-line (CMA/160, BAS). The average dopamine concentration of these three stable samples was defined as control (100%), and all subsequent treatment values were transformed to a percentage of that control. Upon establishing a stable baseline, the PCP was administered by intraperitoneal (i.p.) injection. The high performance liquid chromatography (HPLC) system consists of a BAS reverse-phase column (3.0μ C-18), a BAS LC-4C electrochemical transducer with a dual/glassy carbon electrode set at 650 mV, a computer that analyzes data on-line using a commercial software package (Chromograph Bioanalytical Systems), and a dual pen chart recorder. The mobile phase (flow rate 1.0 ml/min) consisted of 7.0% methanol, 50 mM sodium phosphate monobasic, 1.0 mM sodium octyl sulfate, and 0.1 mm […], pH 4.0. DA eluted at 7.5 min.
Gamma-vinyl GABA (GVG), an irreversible inhibitor of GABA-transaminase, was administered by intraperitoneal injection 2.5 hours prior to PCP (7 mg/kg). In all studies, animals were placed in the microdialysis bowls the night before the experiment and artificial cerebrospinal fluid (ACSF) was perfused through the microdialysis probes at a flow rate of 2.0 μl/min. At the end of each study, animals were sacrificed and their brains were removed and sectioned for probe placement verification.
Levels of extracellular DA were sampled from the NAcc continuously using a stereoaxically implanted probe. […]

[2] = tested on: extracellular DA concentrations in the prefrontal cortex (PFC); assay: In vivo microdialysis of PCP-induced extracellular DA in the prefrontal cortex of freely moving rats; set-up: species or system rat (Sprague-Dawley); conditions: p<0.01
Description: as §1, §2
Animals were placed in bowls, and probes were inserted and flushed with ACSF overnight. On the day of the study, a minimum of three samples were injected to determine baseline stability. Samples were collected for 20 min. and injected on-line (CMA/160, BAS). […]

[3] = tested on: synaptic dopamine (11C-raclopride binding); assay: PET study with 11C-raclopride, GVG and PCP in primates; assay type: in vivo, Papio anubis baboons

C=CC(N)CCC(=O)O (racemic) [GVG, 4-amino-5-hexanoic acid]
attenuation of the DA response to PCP in the NAcc ([1]; GVG 150 mg/kg i.p. 2.5 hours prior to PCP (7 mg/kg)): no significant inhibition
attenuation of the DA response to PCP in the NAcc ([1]; GVG 300 mg/kg i.p. 2.5 hours prior to PCP (7 mg/kg), p<0.01): 62%
attenuation of the DA response to PCP in the NAcc ([1]; GVG 500 mg/kg i.p. 2.5 hours prior to PCP (7 mg/kg), p<0.001): 67%
attenuation of PFC DA activity (response to PCP) ([2]; GVG pretreatment (300 mg/kg group) i.p. 2.5 hours prior to PCP (7 mg/kg)): 67%
effect on PCP-induced increases in neostriatal synaptic DA assessed by PET ([3]; primate (baboon) brain): significantly attenuated
effect on PCP-induced diminution of 11C-raclopride binding (increase in synaptic dopamine) ([3]; prior intravenous 300 mg/kg GVG, PCP 1 mg/kg, four baboons, all cases): prevented the diminution of ^11C-ralcopride binding

c1ccc(C2(N3CCCCC3)CCCCC2)cc1 [PCP, Phencyclidine]
increase of DA concentrations above baseline in the NAcc ([1]; PCP alone, 7 mg/kg i.p., baseline = 100%, p<0.01): 117%
increase of DA concentrations above baseline in the PFC ([2]; PCP alone, 7 mg/kg i.p., baseline = 100%): 407%
